Assay results published in patent WO2020169698A1, “Sensitization of cancer cells to tnf by bet inhibition” (dated 2020).

Columns and labels:
[1] = tested on: HCT116 cells; test: CellTiterGlo viability with BET inhibitor + TNF, 72 h; format: cell-based; conditions: in combination with 15ng/ml TNF vs BET inhibitor single agent, significance for the highest concentration of compound
[2] = tested on: MC38-huCEA expressing sc tumors; test: In vivo antitumor efficacy against MC38-huCEA sc tumors; parameters: species or system mice; conditions: single agent; JQ1 50mg/kg ip once daily (14x) or CEA-TCB 2.5mg/kg iv twice weekly (4x); last day of study
[3] = tested on: HCT116-NLV cells; test: Epigenetic small molecule screen, coculture with CMV-specific T cells, 48 h; format: cell-based, human; conditions: Ag+ coculture, 2.5uM or 5uM
[4] = tested on: MKN45 cells; test: CellTiterGlo viability with BET inhibitor + TNF, 72 h; format: cell-based; conditions: in combination with 15ng/ml TNF vs BET inhibitor single agent, significance for the highest concentration of compound
[5] = tested on: MC38 cells; test: Viability of p-gp 1 expressing MC38 cells with BET inhibitor + TNF +/- Zosuquidar, 72 h; format: cell-based, murine; conditions: for change in sensitivity by p-gp 1 block with Zosuquidar: 0.5mM (so in the source) Zosuquidar, TNF 15ng/mL, 72 hours, some concentrations tested
[6] = tested on: HCT116-EBV cells; test: Epigenetic small molecule screen, negative control coculture with CMV-specific T cells, 48 h; conditions: Ag- (EBV peptide) coculture, 2.5uM or 5uM
[7] = tested on: MC38 cells; test: Synergy of RG6146 and recombinant TNF (PI positivity, ZIP model); format: cell-based, murine; conditions: RG6146 + recombinant TNF, 18 hours
[8] = tested on: HCT116 cells; test: CEA-TCB 2 bystander killing of CEA negative cells, flow cytometry, 72 h; format: cell-based; conditions: RG6146 15uM to 0.002uM with CEA-TCB 2 activated CTLs
[9] = tested on: MLL-AF9-driven acute myeloid leukemia cells; test: OT1 T cell cytotoxicity towards MLL-AF9 AML cells (PI positivity), 16 h; format: cell-based, murine; conditions: 2.5uM RG6146, 16 hours
[10] = tested on: HCT116 cells; test: Cleaved PARP Western blot with CEA-TCB 2 conditioned media + RG6146; format: cell-based; conditions: RG6146 (2.5 and 7 mM as printed) + CEA-TCB 2 conditioned media; not seen in absence of CEA-TCB 2
[11] = tested on: MC38-Ova cells; test: OT1 T cell co-culture cytotoxicity (PI positivity), 18 h; format: cell-based, murine; parameters: dose or concentration left out as unconfirmed; conditions: RG6146 with OT1 T cells
[12] = tested on: Caspase 3,7; test: Caspase 3,7 Glo activity, 8 h; format: cell-based; conditions: for Caspase 3,7 activity: RG6146 + 15ng/mL TNF vs RG6146 single agent, 8h
[13] = tested on: MKN45 cells; test: Cleaved PARP Western blot with CEA-TCB 2 conditioned media + RG6146; format: cell-based; conditions: RG6146 (2.5 and 7 mM as printed) + CEA-TCB 2 conditioned media; not seen in absence of CEA-TCB 2
[14] = tested on: MC38 cells; test: Cell death of MC38 cells overexpressing Bcl-2 or cFLIP (PI positivity), 18 h; format: cell-based, murine; parameters: dose or concentration left out as unconfirmed; conditions: cFLIP overexpression, RG6146 (so in the source) and TNF
[15] = tested on: HCT116-GFP cells; test: CEA-TCB bystander effect on CEA negative cell growth, Incucyte S3; format: cell-based; conditions: RG6146 combined with CEA-TCB (20nM) vs RG6146 single agent, one week
[16] = tested on: MKN45 cells; test: Viability with CEA-TCB/PBMC conditioned media + RG6146, 72 h; format: cell-based
[17] = tested on: MKN45 cells; test: Cleaved PARP Western blot with CEA-TCB conditioned media + RG6146; format: cell-based; conditions: RG6146 (1 and 2.5 mM as printed) + CEA-TCB conditioned media, 24h; not seen in absence of CEA-TCB
[18] = tested on: Caspase 8; test: Caspase 8 Glo activity, 8 h; format: cell-based; conditions: for Caspase 8 activity: RG6146 + 15ng/mL TNF vs RG6146 single agent, 8h
[19] = tested on: AU565 cells; test: Synergy of RG6146 and recombinant TNF (PI positivity, ZIP model); format: cell-based, human; conditions: RG6146 + recombinant TNF, 18 hours
[20] = tested on: HCT116 cells; test: CEA-TCB bystander killing of CEA negative cells, flow cytometry, 72 h; format: cell-based; conditions: RG6146 15uM to 0.002uM with CEA-TCB activated T cells
[21] = tested on: HCT116 cells; test: Growth with Caspase 8 knock down, Incucyte S3; format: cell-based; conditions: 2.5mM (so in the source) RG6146 + 15ng/ml TNF, 7 days
[22] = tested on: HCT116 cells; test: Viability with CEA-TCB/PBMC conditioned media + RG6146, 72 h; format: cell-based; conditions: 20nM CEA-TCB conditioned media + RG6146 30uM to 0.0005uM
[23] = tested on: CEA on tumor cells and CD3e on T cells; conditions: mouse models; cited from earlier work
[24] = tested on: HCT116 cells; conditions: CEA-TCB; "as has been shown for HCT116 cells that express no CEA"; cited from earlier work
[25] = HCT116 and MKN45 cells, inhibitor with RG6146 + TNF (significance not shown)

Molecule: Cc1sc2c(c1C)C(c1ccc(Cl)cc1)=N[C@@H](CC(=O)OC(C)(C)C)c1nnc(C)n1-2 [JQ1]
- viability [1]: significantly decrease viability
- decreased tumor growth [2]: 50%
- viability [3]: significantly decrease viability
- viability [4]: significantly decrease viability
- change in sensitivity by p-gp 1 block with Zosuquidar [5]: no change

Molecule: Cc1sc2c(c1C)C(c1ccc(Cl)cc1)=N[C@@H](CC(=O)Nc1ccc(O)cc1)c1nnc(C)n1-2 [OTX015]
- viability [1]: significantly decrease viability
- viability [3]: significantly decrease viability
- viability [4]: significantly decrease viability

Molecule: CCNC(=O)c1cc2c(-c3cc(C(C)(C)O)ccc3Oc3c(C)cc(F)cc3C)cn(C)c(=O)c2[nH]1 [ABBV744]
- viability [3]: significantly decrease viability

Molecule: Cc1[nH]c2ccccc2c1CCNCc1ccc(/C=C/C(=O)NO)cc1 [Panobinostat]
- viability in negative control coculture (toxicity) [6]: decreased viability also in the negative control

Molecule: CCS(=O)(=O)Nc1ccc(Oc2ccc(F)cc2F)c(-c2cn(C)c(=O)c3[nH]ccc23)c1 [Mivebresib]
- viability [3]: significantly decrease viability

Molecule: Nc1ccccc1NC(=O)c1ccc(CNC(=O)OCc2cccnc2)cc1 [Entinostat]
- viability in negative control coculture (toxicity) [6]: decreased viability also in the negative control

Molecule: COc1cc2c(cc1-c1c(C)noc1C)ncc1[nH]c(=O)n([C@H](C)c3ccccn3)c12 [ΪBET151]
- viability [1]: significantly decrease viability
- viability [3]: significantly decrease viability
- viability [4]: significantly decrease viability

Molecule: Cc1sc2c(c1C)C(c1ccc(Cl)cc1)=N[C@@H](CC(=O)NCCCN1CCN(C)CC1)c1nnc(C)n1-2 [RG6146, 2-[(S)-4-(4-chloro-phenyl)-2,3,9-trimethyl-6H-l-thia-5,7,8,9a-tetraaza-cyclopenta[e]azulen-6-yl]-N-[3-(4-methyl-piperazin-l-yl)-propyl]-acetamide]
- induction of cell death, synergy with TNF [7]: synergstic
- viability [1]: significantly decrease viability
- cell killing in CEA negative cells [8]: able to increase cell killing
- cytotoxic activity of OT1 T cells ([9]; perforin expressing (wild-type) OT1 T cells): augments the cytotoxic activity
- cytotoxic activity of OT1 T cells ([9]; perforin-deficient OT1 T cells): augments the cytotoxic activity
- cell death (cleaved PARP) [10]: able to induce cell death
- cell death (PI positivity) [11]: increased cell death
- Caspase 3,7 activity ([12]; HCT116 cells): induces Caspase3,7 and 8 activity in HCT-116 and MKN45 cells significantly
- Caspase 3,7 activity ([12]; MKN45 cells): induces Caspase3,7 and 8 activity in HCT-116 and MKN45 cells significantly
- cell death (cleaved PARP) [13]: able to induce cell death
- cytotoxic effects of TNF+RG6146 [14]: abrogate the cytotoxic effects
- cell growth of CEA negative cells [15]: significantly decrease cell growth
- viability ([16]; RG6146 with CEA-TCB supernatant): decrease in viability
- cell death (cleaved PARP) [17]: able to induce cell death
- viability [3]: significantly decrease viability
- Caspase 8 activity ([18]; HCT116 cells): induces Caspase3,7 and 8 activity in HCT-116 and MKN45 cells significantly
- Caspase 8 activity ([18]; MKN45 cells): induces Caspase3,7 and 8 activity in HCT-116 and MKN45 cells significantly
- induction of cell death, synergy with TNF [19]: synergstic
- viability [4]: significantly decrease viability
- change in sensitivity by p-gp 1 block with Zosuquidar [5]: sensitized
- sensitivity of p-gp 1 expressing MC38 cells ([5]; compared to JQ1): less sensitive
- cell killing in CEA negative cells [20]: able to increase cell killing
- cell growth rescue ([21]; Caspase 8 knockdown): rescued cell growth under these treatment conditions partially
- cell growth ([21]; scr treated cells): completely blocked HCT116 cell growth

Molecule: Z-IETD-FMK: Caspase 8 inhibitor Z-IETD-FMK (R&D Systems #FMK007) (not fully specified)
- block of downstream Caspase 3,7 activation [12, 25]: blocked Caspase 8 and downstream Caspase 3,7 activation completely
- block of Caspase 8 activation [18, 25]: blocked Caspase 8 and downstream Caspase 3,7 activation completely

Molecule: O=C(CCCCCCC(=O)Nc1ccccc1)NO [Vorinostat]
- viability in negative control coculture (toxicity) [6]: decreased viability also in the negative control

B1: CEA-TCB: T cell activating bispecific antibody targeting CEA on tumor cells and CD3e on T cells (antibody, chains of the INN, looked up, V domains shown)
VH: QVQLVQSGAEVKKPGASVKVSCKASGYTFTEFGMNWVRQAPGQGLEWMGWINTKTGEATYVEEFKGRVTFTTDTSTSTAYMELRSLRSDDTAVYYCARWDFAYYVEAMDYWGQGTTVTVSS
VL: DIQMTQSPSSLSASVGDRVTITCKASAAVGTYVAWYQQKPGKAPKLLIYSASYRKRGVPSRFSGSGSGTDFTLTISSLQPEDFATYYCHQYYTYPLFTFGQGTKLEIK
VH2: B1 VH
VL2: QAVVTQEPSLTVSPGGTVTLTCGSSTGAVTTSNYANWVQEKPGQAFRGLIGGTNKRAPGTPARFSGSLLGGKAALTLSGAQPEDEAEYYCALWYSNLWVFGGGTKLTVL
- decreased tumor growth [2]: 60%
- combination of cytokines released by CEA-TCB activated T cells with BET inhibition ([16]; 20nM CEA-TCB conditioned media + RG6146 30uM to 0.0005uM): synergistically combine with BET inhibition
- combination of cytokines released by CEA-TCB activated T cells with BET inhibition [22]: synergistically combine with BET inhibition
- PD-L1/PD-1 pathway [23]: up-regulates
- anti-tumor activity [23]: potent anti-tumor activity
- intratumoral T cell infiltration [23]: increased intratumoral T cell infiltration
- release of pro-inflammatory cytokines such as IFNy, TNF and Granzyme B [23]: increased release of pro-inflammatory cytokines
- CTL killing of cells with low or no CEA [24]: not able to induce CTL killing
